# Earlier results in US20160250154A1, “FILM DELIVERY SYSTEM FOR ACTIVE INGREDIENTS” (MonoSol Rx, LLC, priority 2013, published 2016).
# Conditions: MSDS from PI Chemical
smiles,measurement,value
CCCCCCCCCCC(=O)O[C@H]1CC[C@H]2[C@@H]3CCC4=CC(=O)CC[C@]4(C)[C@H]3CC[C@]12C [Testosterone Undecanoate],classification of solubility in water,insoluble in water
